Data reported in patent US20260334439A1, “BCAT2 INHIBITORS” (Agios Pharmaceuticals, Inc., priority 2023, published 2026).

target: T1, BCAT2 (Homo sapiens, UniProt O15382); experiment: BCAT2 in vitro enzyme inhibition assay (hBCAT2, glutamate dehydrogenase/diaphorase/resazurin coupled fluorescence read); assay type: biochemical; details: hBCAT2, 1 h preincubation at 25° C., one hour reaction; average where tested multiple times
T1 sequence (O15382 28-392): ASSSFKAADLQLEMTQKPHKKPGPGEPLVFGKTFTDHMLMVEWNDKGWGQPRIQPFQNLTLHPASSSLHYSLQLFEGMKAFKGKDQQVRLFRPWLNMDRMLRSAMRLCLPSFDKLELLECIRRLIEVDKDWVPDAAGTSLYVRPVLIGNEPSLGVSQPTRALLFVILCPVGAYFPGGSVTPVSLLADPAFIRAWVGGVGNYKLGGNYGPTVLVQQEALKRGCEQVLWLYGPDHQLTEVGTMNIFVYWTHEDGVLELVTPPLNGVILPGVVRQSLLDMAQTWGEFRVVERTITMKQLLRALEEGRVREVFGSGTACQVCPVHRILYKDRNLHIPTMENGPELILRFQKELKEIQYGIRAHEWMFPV
Outline: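 hBCAT2 (0.33 μg/mL in mix) preincubated 1 h at 25 °C with compound (top 100 μM, 3-fold, 10 points) in Tris pH 8.0/NaCl/BSA; substrate mix added (L-leucine, α-ketoglutarate, GDH, NAD, diaphorase, resazurin), quenched with SDS after 1 h, fluorescence Ex 540/Em 590; duplicates, repeat tests averaged.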

Row | IC50 | SMILES
1 | < 100 nM | CN1C[C@H](N2Cc3ccc(F)cc3C2=O)C[C@H](n2c(-c3ccccc3OCCO)nc3cnc(-c4nc[nH]n4)cc32)C1 [Example 197, 6-fluoro-2-((3R,5S)-5-(2-(2-(2-hydroxyethoxy)phenyl)-6-(1H-1,2,4-triazol-3-yl)-1H-imidazo[4,5-c]pyridin-1-yl)-1-methylpiperidin-3-yl)isoindolin-1-one]
2 | 100 to 500 nM | CN1C[C@@H](N2Cc3ccc(F)cc3C2=O)C[C@@H](n2c(-c3ccccc3OCCO)nc3cnc(-c4nc[nH]n4)cc32)C1 [Example 198, 6-fluoro-2-((3S,5R)-5-(2-(2-(2-hydroxyethoxy)phenyl)-6-(1H-1,2,4-triazol-3-yl)-1H-imidazo[4,5-c]pyridin-1-yl)-1-methylpiperidin-3-yl)isoindolin-1-one]
3 | < 100 nM | CC(=O)N1C[C@@H](N2Cc3ccc(F)cc3C2=O)C[C@@H](n2c(-c3ccccc3F)nc3cnc(-n4nccn4)cc32)C1 [Example 199, 2-((3S,5R)-1-acetyl-5-(2-(2-fluorophenyl)-6-(2H-1,2,3-triazol-2-yl)-1H-imidazo[4,5-c]pyridin-1-yl)piperidin-3-yl)-6-fluoroisoindolin-1-one]
4 | < 100 nM | N#Cc1ccccc1-c1nc2cnc(-c3nc[nH]n3)cc2n1[C@@H]1CCC[C@H](N2COc3ccc(Cl)cc3C2=O)C1 [Example 203, 2-(1-((1R,3S)-3-(6-chloro-4-oxo-2H-benzo[e][1,3]oxazin-3(4H)-yl)cyclohexyl)-6-(1H-1,2,4-triazol-3-yl)-1H-imidazo[4,5-c]pyridin-2-yl)benzonitrile]
5 | < 100 nM | NC(=O)c1ccccc1-c1nc2cnc(-c3nc[nH]n3)cc2n1[C@@H]1CCC[C@H](N2COc3ccc(Cl)cc3C2=O)C1 [Example 207, 2-(1-((1R,3S)-3-(6-chloro-4-oxo-2H-benzo[e][1,3]oxazin-3(4H)-yl)cyclohexyl)-6-(1H-1,2,4-triazol-3-yl)-1H-imidazo[4,5-c]pyridin-2-yl)benzamide]
6 | < 100 nM | N#Cc1ccccc1-c1nc2cnc(-c3nc[nH]n3)cc2n1[C@@H]1CCC[C@H](N2COc3ccc(F)cc3C2=O)C1 [Example 210, 2-(1-((1R,3S)-3-(6-fluoro-4-oxo-2H-benzo[e][1,3]oxazin-3(4H)-yl)cyclohexyl)-6-(1H-1,2,4-triazol-3-yl)-1H-imidazo[4,5-c]pyridin-2-yl)benzonitrile]
7 | > 1000 nM | O=C1c2cc(Cl)ccc2OCCN1[C@H]1CCC[C@@H](n2c(-c3ccccc3F)nc3cnc(-c4nc[nH]n4)cc32)C1 [Example 216, 7-chloro-4-((1S,3R)-3-(2-(2-fluorophenyl)-6-(1H-1,2,4-triazol-3-yl)-1H-imidazo[4,5-c]pyridin-1-yl)cyclohexyl)-3,4-dihydrobenzo[f][1,4]oxazepin-5(2H)-one]
8 | > 1000 nM | CO[C@@H]1C[C@@H](NC(=O)c2cc(F)ccn2)C[C@@H](n2c(-c3ccccc3F)nc3ccc(-c4nc[nH]n4)cc32)C1 [Example 220, 4-fluoro-N-((1R,3S,5S)-3-(2-(2-fluorophenyl)-6-(1H-1,2,4-triazol-3-yl)-1H-benzo[d]imid-azol-1-yl)-5-methoxycyclohex-yl)picolinamide]
9 | 100 to 500 nM | O=C(N[C@H]1CCC[C@@H](n2c(-c3ncccc3F)nc3ccc(-c4nc[nH]n4)cc32)[C@@H]1O)c1cc(F)ccc1F [Example 222, 2,5-difluoro-N-((1S,2R,3R)-3-(2-(3-fluoropyridin-2-yl)-6-(1H-1,2,4-triazol-3-yl)-1H-benzo[d]imidazol-1-yl)-2-hydroxycyclo-hexyl)benzamide]
10 | 100 to 500 nM | CO[C@H]1C[C@H](NC(=O)c2cc(F)ccn2)C[C@H](n2c(-c3ccccc3OCCO)nc3ccc(-c4ncco4)cc32)C1 [Example 223, 4-fluoro-N-((1R,3S,5S)-3-(2-(2-(2-hydroxyethoxy)phenyl)-6-(oxazol-2-yl)-1H-benzo[d]imid-azol-1-yl)-5-methoxycyclohex-yl)picolinamide]
11 | < 100 nM | CO[C@H]1C[C@H](NC(=O)c2cc(F)ccn2)C[C@H](n2c(-c3ccccc3OCCO)nc3ccc(-c4ncccn4)cc32)C1 [Example 224, 4-fluoro-N-((1R,3S,5S)-3-(2-(2-(2-hydroxyethoxy)phenyl)-6-(pyrimidin-2-yl)-1H-benzo[d]imidazol-1-yl)-5-methoxycyclo-hexyl)picolinamide]
12 | < 100 nM | O=C(N[C@H]1CCC[C@@H](n2c(-c3ccccc3F)nc3ccc(-c4nc[nH]n4)cc32)[C@@H]1O)c1cc(F)ccc1F [Example 225, 2,5-difluoro-N-((1S,2R,3R)-3-(2-(2-fluorophenyl)-6-(1H-1,2,4-triazol-3-yl)-1H-benzo[d]imid-azol-1-yl)-2-hydroxycyclohex-yl)benzamide]
13 | < 100 nM | O=C(N[C@H]1CCC[C@@H](n2c(-c3ccccc3OCCO)nc3ccc(-c4nc[nH]n4)cc32)C1)c1cc(F)ccc1F [Example 228, 2,5-difluoro-N-((1S,3R)-3-(2-(2-(2-hydroxyethoxy)phenyl)-6-(1H-1,2,4-triazol-3-yl)-1H-benzo[d]imidazol-1-yl)cyclo-hexyl)benzamide]
14 | < 100 nM | O=C(N[C@H]1CCC[C@@H](n2c(-c3ccccc3OCCO)nc3ccc(-c4nc[nH]n4)cc32)C1)c1cc(Cl)ccc1F [Example 229, 5-chloro-2-fluoro-N-((1S,3R)-3-(2-(2-(2-hydroxyethoxy)phenyl)-6-(1H-1,2,4-triazol-3-yl)-1H-benzo[d]imidazol-1-yl)cyclohex-yl)benzamide]
15 | < 100 nM | O=C(N[C@@H]1C[C@H](n2c(-c3ccccc3OCCO)nc3ccc(-c4nc[nH]n4)cc32)CC(F)(F)C1)c1cc(F)ccn1 [Example 231, N-((1R,5S)-3,3-difluoro-5-(2-(2-(2-hydroxyethoxy)phenyl)-6-(1H-1,2,4-triazol-3-yl)-1H-benzo[d]imidazol-1-yl)cyclohexyl)-4-fluoropicolinamide]
16 | 100 to 500 nM | O=C(N[C@H]1C[C@@H](n2c(-c3ccccc3OCCO)nc3ccc(-c4nc[nH]n4)cc32)CC(F)(F)C1)c1cc(F)ccn1 [Example 232, N-((1S,5R)-3,3-difluoro-5-(2-(2-(2-hydroxyethoxy)phenyl)-6-(1H-1,2,4-triazol-3-yl)-1H-benzo[d]imidazol-1-yl)cyclohexyl)-4-fluoropicolinamide]
17 | < 100 nM | CN1C[C@H](NC(=O)c2cc(Cl)ccn2)C[C@H](n2c(-c3ccccc3OCCO)nc3ccc(-c4ncccn4)cc32)C1 [Example 234, 4-chloro-N-((3R,5S)-5-(2-(2-(2-hydroxyethoxy)phenyl)-6-(pyr-imidin-2-yl)-1H-benzo[d]imid-azol-1-yl)-1-methylpiperidin-3-yl)picolinamide]
18 | > 1000 nM | CN1C[C@@H](NC(=O)c2cc(Cl)ccn2)C[C@@H](n2c(-c3ccccc3OCCO)nc3ccc(-c4ncccn4)cc32)C1 [Example 235, 4-chloro-N-((3S,5R)-5-(2-(2-(2-hydroxyethoxy)phenyl)-6-(pyr-imidin-2-yl)-1H-benzo[d]imid-azol-1-yl)-1-methylpiperidin-3-yl)picolinamide]
19 | 100 to 500 nM | CN1C[C@H](NC(=O)c2cc(F)ccn2)C[C@H](n2c(-c3ccccc3OCCO)nc3ccc(-c4ncccn4)cc32)C1 [Example 236, 4-fluoro-N-((3R,5S)-5-(2-(2-(2-hydroxyethoxy)phenyl)-6-(pyr-imidin-2-yl)-1H-benzo[d]imid-azol-1-yl)-1-methylpiperidin-3-yl)picolinamide]
20 | > 1000 nM | CN1C[C@@H](NC(=O)c2cc(F)ccn2)C[C@@H](n2c(-c3ccccc3OCCO)nc3ccc(-c4ncccn4)cc32)C1 [Example 237, 4-fluoro-N-((3S,5R)-5-(2-(2-(2-hydroxyethoxy)phenyl)-6-(pyr-imidin-2-yl)-1H-benzo[d]imid-azol-1-yl)-1-methylpiperidin-3-yl)picolinamide]
21 | < 100 nM | N[C@H]1[C@H](n2c(-c3ccccc3F)nc3ccc(-c4nc[nH]n4)cc32)CCC[C@@H]1N1Cc2ccc(Cl)cc2C1=O [Example 242, 2-((1S,2S,3R)-2-amino-3-(2-(2-fluorophenyl)-6-(1H-1,2,4-triazol-3-yl)-1H-benzo[d]imidazol-1-yl)cyclohexyl)-6-chloroisoindolin-1-one]
22 | 500 to 1000 nM | CN1C[C@@H](N2Cc3ccc(F)cc3C2=O)C[C@@H](n2c(-c3ccccc3OCCO)nc3ccc(-c4ncccn4)cc32)C1 [Example 244, 6-fluoro-2-((3S,5R)-5-(2-(2-(2-hydroxyethoxy)phenyl)-6-(pyr-imidin-2-yl)-1H-benzo[d]imid-azol-1-yl)-1-methylpiperidin-3-yl)isoindolin-1-one]
23 | < 100 nM | O=C(N[C@H]1CCC[C@@H](n2c(-c3ncccc3F)nc3cnc(-c4nc[nH]n4)cc32)C1)c1cc(Cl)ccc1OC(F)F [compound 47]
24 | < 100 nM | O=C(N[C@H]1CCC[C@@H](n2c(-c3ccccc3F)nc3cnc(-c4nc[nH]n4)cc32)C1)c1cc(Cl)ccc1OC(F)F [compound 50]
25 | < 100 nM | O=C(N[C@H]1CCC[C@@H](n2c(-c3ccccc3OC(F)F)nc3cnc(-c4nc[nH]n4)cc32)C1)c1cc(Cl)ccc1OC(F)F [compound 51]
26 | < 100 nM | O=C(N[C@H]1CCC[C@@H](n2c(-c3ccccc3OC(F)F)nc3cnc(-c4nc[nH]n4)cc32)C1)c1cc(Cl)ccn1 [compound 52]
27 | < 100 nM | O=C(N[C@H]1CCC[C@@H](n2c(-c3ncccc3OC(F)F)nc3cnc(-c4nc[nH]n4)cc32)C1)c1cc(F)ccc1F [compound 61]
28 | < 100 nM | O=C(N[C@H]1CCC[C@@H](n2c(-c3ncccc3OC(F)F)nc3cnc(-c4nc[nH]n4)cc32)C1)c1cc(Cl)ccn1 [compound 62]
29 | < 100 nM | O=C(N[C@H]1CCC[C@@H](n2c(-c3ncccc3OC(F)F)nc3cnc(-c4nc[nH]n4)cc32)C1)c1cc(F)ccn1 [compound 63]
